From patent US20210213020A1, “METHODS AND PHARMACEUTICAL COMPOSITIONS FOR TREATING CANCER” (INSERM (INSTITUT NATIONAL DE LA SANTÉ ET DE LA RECHIRCHE …, priority 2018, published 2021)

How the values were obtained:
[1] = female, Balb/C, mouse, in vivo; for Time by which erythrocyte PLP levels approach baseline concentrations after injection: ip
From the text: Blood was collected in heparin. Measurements of B6 vitamers were done by HPLC.28

[2] = mice, one or two injections of PM at 150 or 450 mg/kg
Cancer cells = assay: Cytotoxic properties per se of folinic acid and PLP; assay type: cell-based; conditions: in concentrations used in the present experiment (folinic acid 20, PLP 160 μmon)
Experimental: (§1) Cancer cells were exposed in 12 well-cell plates to FUra in various concentrations under four conditions; either as a single agent [FUra]; in combination with [6R,S]-folinic acid (20 μmon) [FUra-FA]; in combination with PLP (160 μmon; Sigma-Aldrich) [FUra-PLP]; and with both agents [6R,S]-folinic acid (20 μmon), and PLP (160 μmon) together [FUra-AF-PLP]. Cells were harvested 72 hours from start of the exposure. Cell viability was measured with the Trypan Blue dye exclusion test in Malassez chambers or by flow cytometry. For the latter method, living cells defined by light double scatter were counted in a BD Accuri C6 flow cytometer (BD Biosciences). Experiments were in duplicate.

[3] = biological target: purified rabbit liver SHMT; conditions: read-out: Kd of SHMT for PLP; cited from earlier work
[4] = biological target: T1, Human recombinant cytoplasmic cSHMT (Homo sapiens, UniProt P34896); conditions: human recombinant cytoplasmic cSHMT (ref 22); read-out: Kd of SHMT for PLP; cited from earlier work
T1 sequence (P34896 1-483): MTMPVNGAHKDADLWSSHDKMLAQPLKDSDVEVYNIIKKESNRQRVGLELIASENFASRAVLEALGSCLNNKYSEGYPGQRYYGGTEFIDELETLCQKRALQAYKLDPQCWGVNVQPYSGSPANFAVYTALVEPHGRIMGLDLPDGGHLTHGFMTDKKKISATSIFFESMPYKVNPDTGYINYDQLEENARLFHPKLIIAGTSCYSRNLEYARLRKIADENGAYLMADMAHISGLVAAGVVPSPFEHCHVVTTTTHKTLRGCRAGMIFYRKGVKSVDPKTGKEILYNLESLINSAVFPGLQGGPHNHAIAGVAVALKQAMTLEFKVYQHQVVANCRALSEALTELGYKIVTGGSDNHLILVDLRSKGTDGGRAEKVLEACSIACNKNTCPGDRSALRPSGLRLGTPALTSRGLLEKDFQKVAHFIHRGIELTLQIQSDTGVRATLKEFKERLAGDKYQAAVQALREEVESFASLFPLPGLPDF

human recombinant SHMT1 = biological target: T2, human recombinant SHMT1 (Homo sapiens, UniProt P34896); conditions: human recombinant SHMT1 (ref 23); read-out: Kd of SHMT for PLP; cited from earlier work
T2 sequence (P34896 1-483): T1 sequence (P34896 1-483)

human recombinant SHMT2 = biological target: T3, human recombinant SHMT2 (Homo sapiens, UniProt P34897); conditions: human recombinant SHMT2 (ref 23); read-out: Kd of SHMT for PLP; cited from earlier work
T3 sequence (P34897 30-504): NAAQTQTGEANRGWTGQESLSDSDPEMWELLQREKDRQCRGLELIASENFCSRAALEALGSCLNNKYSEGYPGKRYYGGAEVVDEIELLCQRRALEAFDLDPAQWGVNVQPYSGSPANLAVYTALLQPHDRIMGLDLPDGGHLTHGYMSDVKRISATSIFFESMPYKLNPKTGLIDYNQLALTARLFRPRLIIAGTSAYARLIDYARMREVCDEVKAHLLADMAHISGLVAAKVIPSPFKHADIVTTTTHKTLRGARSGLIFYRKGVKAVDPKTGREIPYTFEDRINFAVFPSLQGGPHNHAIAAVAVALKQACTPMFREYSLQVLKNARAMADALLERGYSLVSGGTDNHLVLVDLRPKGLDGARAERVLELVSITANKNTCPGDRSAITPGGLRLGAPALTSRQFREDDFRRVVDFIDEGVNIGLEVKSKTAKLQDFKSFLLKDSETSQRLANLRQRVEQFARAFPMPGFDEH

[5] = system: HT29 human colorectal carcinoma cell line; assay: Cytotoxicity (cell growth inhibition) in vitro, 72 h exposure, HT29; assay type: cell-based; conditions: HT-29, 72 hour-incubation, FA 20 μmol/L and/or PLP 160 μmol/L where present, read-out: IC50 in μmol/L of FUra (95% CI)
Experimental: (§2) The human colorectal carcinoma cell lines HT29, and HCT116 and the murine L1210 lymphocytic leukemia were thawed from mycoplasma-free frozen stocks and were controlled for contamination. Cells were grown in customized DMEM cell culture medium without any B6-vitamer (Gibco; Life Technologies) supplemented with 10% FBS and antibiotics (streptomycin, 50 μg/ml, and penicillin, 50 U/ml) at 37° C. in an atmosphere containing 5% CO2.
as §1
(§3) Growth inhibition data obtained with FUra as a single agent [FUra], FUra with folinic acid [FUra-FA], FUra with PLP [FUra-PLP], and FUra with both folinic acid and PLP combined [FUra-FA-PLP] were studied according to the Median Effect principle for concentration-effect analysis. […]

[6] = system: HCT116 human colorectal carcinoma cell line; assay: Cytotoxicity (cell growth inhibition) in vitro, 72 h exposure, HCT116; assay type: cell-based; conditions: HCT-116, 72 hour-incubation, FA 20 μmol/L and/or PLP 160 μmol/L where present, read-out: IC50 in μmol/L of FUra (95% CI)
Experimental: as §2, §1, §3

[7] = system: L1210 murine lymphocytic leukemia; assay: Cytotoxicity (cell growth inhibition) in vitro, 72 h exposure, L1210; assay type: cell-based; conditions: Mus musculus, 72 hour-incubation, FA 20 μmol/L and/or PLP 160 μmol/L where present, read-out: IC50 in μmol/L of FUra (95% CI)
Experimental: as §2, §1, §3

For `Cc1ncc(CO)c(CN)c1O` [PM, pyridoxamine], the “Peak erythrocyte PLP concentration, 450 mg/kg versus 150 mg/kg” value [1] was “about 6 fold”, the “Time by which erythrocyte PLP levels approach baseline concentrations after injection” value [1] was ≤ 12 h and the “Signs of acute toxicity” value [2] was “No signs of acute toxicity”.

In the case of `Cc1ncc(COP(=O)(O)O)c(C=O)c1O` [PLP, pyridoxal 5′-phosphate], the “Cytotoxic properties per se” value (Cancer cells) is listed as “neither folinic acid nor PLP carry cytotoxic properties per se”, the Kd [3] is listed as 700 nM and the Kd [4] is listed as 850 nM. The Kd (human recombinant SHMT1) was 250 nM and the Kd (human recombinant SHMT2) was 440 nM.

For `Nc1nc2c(c(=O)[nH]1)N(C=O)C(CNc1ccc(C(=O)N[C@@H](CCC(=O)O)C(=O)O)cc1)CN2` (stereo partly shown) [folinic acid, N5-formyl tetra hydro pteroylglutamate, reference compound], the “Cytotoxic properties per se” value (Cancer cells) was “neither folinic acid nor PLP carry cytotoxic properties per se”.

In the case of `O=c1[nH]cc(F)c(=O)[nH]1` [FUra, 5-fluorouracil], the IC50 [5] is reported as 1.18 µmol/L, the IC50 [6] is reported as 1.31 µmol/L and the IC50 [7] is reported as 0.47 µmol/L.

In the case of `Cc1ncc(CO)c(CO)c1O` [PN, pyridoxine, reference compound], the “Time by which erythrocyte PLP levels approach baseline concentrations after injection” value [1] is reported as ≤ 12 h.
